According to the NIST ThermoML archive (doi:10.1021/je100362p):

Columns and labels:
[1] = refractive index (Na D-line) (dimensionless); xn = mol fraction of the nth substance listed; conditions: 101 kPa, Liquid, Standard Abbe refractometry
[2] = xn = mol fraction of the nth substance listed; conditions: 101 kPa, Liquid; for speed of sound: Sing-around technique in a fixed-path interferometer

Cc1ccc(O)cc1 [4-methylphenol] + CCCCCCCCCCO
Conditions	mass density, 298.15 K [kg/m3]	mass density, 303.15 K [kg/m3]	mass density, 308.15 K [kg/m3]	refractive index, 298.15 K	refractive index, 303.15 K	refractive index, 308.15 K	speed of sound, 298.15 K [m/s]	speed of sound, 303.15 K [m/s]	speed of sound, 308.15 K [m/s]
[1], x1 = 0.079	–	–	–	1.43878	1.43659	1.43439	–	–	–
[1], x1 = 0.1424	–	–	–	1.44253	1.44025	1.43792	–	–	–
[1], x1 = 0.2213	–	–	–	1.44759	1.44524	1.44279	–	–	–
[1], x1 = 0.2915	–	–	–	1.45252	1.45006	1.44748	–	–	–
[1], x1 = 0.3611	–	–	–	1.45786	1.45529	1.45263	–	–	–
[1], x1 = 0.418	–	–	–	1.46259	1.45994	1.45719	–	–	–
[1], x1 = 0.4915	–	–	–	1.46921	1.46649	1.46363	–	–	–
[1], x1 = 0.5566	–	–	–	1.47562	1.47279	1.46987	–	–	–
[1], x1 = 0.6321	–	–	–	1.48379	1.48088	1.47785	–	–	–
[1], x1 = 0.7041	–	–	–	1.49234	1.48935	1.48629	–	–	–
[1], x1 = 0.7628	–	–	–	1.49988	1.49689	1.49381	–	–	–
[1], x1 = 0.8229	–	–	–	1.50829	1.50524	1.50212	–	–	–
[1], x1 = 0.8793	–	–	–	1.51677	1.51369	1.51055	–	–	–
[1], x1 = 0.9382	–	–	–	1.52626	1.52321	1.52011	–	–	–
[1], x1 = 1	–	–	–	1.537	1.534	1.531	–	–	–
[2], x1 = 0.079	836.102	832.641	829.175	–	–	–	1384.9	1367.8	1350.9
[2], x1 = 0.1424	844.261	840.772	837.278	–	–	–	1389	1371.9	1355.1
[2], x1 = 0.2213	855.053	851.531	847.999	–	–	–	1394	1376.9	1360
[2], x1 = 0.2915	865.315	861.764	858.196	–	–	–	1398.6	1381.6	1364.7
[2], x1 = 0.3611	876.182	872.603	869.001	–	–	–	1403.5	1386.4	1369.6
[2], x1 = 0.418	885.652	882.051	878.417	–	–	–	1407.7	1390.8	1373.9
[2], x1 = 0.4915	898.718	895.088	891.418	–	–	–	1413.7	1396.8	1379.9
[2], x1 = 0.5566	911.201	907.546	903.844	–	–	–	1419.6	1402.7	1385.9
[2], x1 = 0.6321	926.903	923.218	919.477	–	–	–	1427.5	1410.7	1394
[2], x1 = 0.7041	943.248	939.531	935.758	–	–	–	1436.1	1419.4	1402.8
[2], x1 = 0.7628	957.751	954.009	950.207	–	–	–	1444	1427.3	1411
[2], x1 = 0.8229	973.785	970.012	966.196	–	–	–	1453.2	1436.7	1420.2
[2], x1 = 0.8793	990.126	986.325	982.485	–	–	–	1462.3	1446.2	1429.9
[2], x1 = 0.9382	1008.68	1004.85	1000.99	–	–	–	1474.2	1458	1442.4
[2], x1 = 1	1030.14	1026.28	1022.38	–	–	–	1486.4	1470.7	1455
